Each structure is given as a SMILES string. Converted amounts (≈) assume the structure as drawn.

We go through 43 molecules from ChEMBL document CHEMBL5223077, “Recent advances on synthesis and biological activities of aurones” (Bioorg Med Chem, 2021).

Assay [1] can be described thus: Antioxidant activity assessed as DPPH radical scavenging activity relative to control. Also noted: concentration or dose not given beside the values. Format: functional. (Loss of DPPH colour is used to gauge radical scavenging.)
The next assay deals with K562. Briefly: Antiproliferative activity against human K562 cells assessed as cell growth inhibition at 10 uM relative to control. In kind it is functional, cell-based.
The test system of the next assay is MDA-MB-435. Put plainly: Antiproliferative activity against human MDA-MB-435 cells assessed as cell growth inhibition at 10 uM relative to control. Format: functional, cell-based.
Assay [2] has as its target T1, Nitric oxide synthase, inducible (Mus musculus, UniProt P29477).
T1 sequence (P29477 whole entry): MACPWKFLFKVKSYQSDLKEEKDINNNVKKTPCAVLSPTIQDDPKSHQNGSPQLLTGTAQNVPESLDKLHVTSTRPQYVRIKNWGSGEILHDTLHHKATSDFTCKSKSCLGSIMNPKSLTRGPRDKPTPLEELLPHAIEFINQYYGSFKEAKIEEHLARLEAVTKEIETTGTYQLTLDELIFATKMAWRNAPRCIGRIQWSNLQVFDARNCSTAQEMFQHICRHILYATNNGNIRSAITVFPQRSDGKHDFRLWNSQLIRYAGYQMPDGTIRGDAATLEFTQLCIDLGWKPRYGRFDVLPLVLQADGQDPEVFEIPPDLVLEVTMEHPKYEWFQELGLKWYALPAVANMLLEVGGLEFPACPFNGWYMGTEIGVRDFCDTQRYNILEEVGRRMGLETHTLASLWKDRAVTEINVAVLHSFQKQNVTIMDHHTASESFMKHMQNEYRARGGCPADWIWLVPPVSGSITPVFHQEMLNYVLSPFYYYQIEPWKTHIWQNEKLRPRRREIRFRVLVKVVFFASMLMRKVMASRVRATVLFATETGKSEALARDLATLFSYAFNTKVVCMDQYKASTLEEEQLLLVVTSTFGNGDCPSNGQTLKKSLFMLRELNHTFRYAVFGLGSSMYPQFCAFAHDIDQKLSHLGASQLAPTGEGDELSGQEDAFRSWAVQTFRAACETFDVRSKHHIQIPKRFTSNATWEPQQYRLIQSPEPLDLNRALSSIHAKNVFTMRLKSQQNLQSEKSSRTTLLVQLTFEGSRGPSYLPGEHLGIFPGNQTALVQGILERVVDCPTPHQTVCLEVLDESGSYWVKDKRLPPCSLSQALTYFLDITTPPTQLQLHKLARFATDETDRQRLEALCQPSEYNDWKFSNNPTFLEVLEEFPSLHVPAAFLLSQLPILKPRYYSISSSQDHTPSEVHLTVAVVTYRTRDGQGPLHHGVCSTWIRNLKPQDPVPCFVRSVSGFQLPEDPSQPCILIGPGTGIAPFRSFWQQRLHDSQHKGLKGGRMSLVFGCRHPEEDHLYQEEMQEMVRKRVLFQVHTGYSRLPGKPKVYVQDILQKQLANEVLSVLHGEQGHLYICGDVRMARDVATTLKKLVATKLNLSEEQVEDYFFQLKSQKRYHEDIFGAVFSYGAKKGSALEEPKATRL
Put plainly: Inhibition of iNOS expression in LPS-induced mouse RAW264.7 cells. In kind it is cell-based.

The subject of the next assay is HT-29. Put plainly: Antiproliferative activity against human HT-29 cells assessed as cell growth inhibition. In kind it is functional, cell-based.
For a further assay, the system named is HL-60. Briefly: Antiproliferative activity against human HL-60 cells assessed as cell growth inhibition. In kind it is functional, cell-based.
The next assay addresses Tubulin. Put plainly: Inhibition of tubulin (unknown origin). Format: protein-complex assay, Homo sapiens.
The subject of a further assay is MES-SA. Briefly: Antiproliferative activity against human MES-SA cells assessed as cell growth inhibition. In kind it is functional, cell-based.
In another assay the test system is MES-SA/Dx5. Put plainly: Antiproliferative activity against human MES-SA/Dx5 cells assessed as cell growth inhibition. In kind it is functional, cell-based.
Another assay has as its system Bacillus subtilis. Put plainly: Antimicrobial activity against Bacillus subtilis assessed as inhibition of bacterial growth. Format: functional.
For another assay, the system named is Fusarium oxysporum. Put plainly: Antifungal activity against Fusarium oxysporum assessed as inhibition of fungal growth. Format: functional.
Another assay deals with Staphylococcus aureus. Put plainly: Antimicrobial activity against Staphylococcus aureus assessed as inhibition of bacterial growth. Format: functional.
In assay [3] the test system is Mycolicibacterium smegmatis. Briefly: Anti-mycobacterial activity against Mycobacterium smegmatis assessed as inhibition of bacterial growth. In kind it is functional.
For another assay, the system named is Candida albicans. Briefly: Antifungal activity against Candida albicans assessed as inhibition of fungal growth. Format: functional.
Assay [4] is described as follows: Antioxidant activity assessed as ABTS radical scavenging activity. Format: functional.
The subject of assay [5] is Plasmodium falciparum. Briefly: Antiplasmodial activity against Plasmodium falciparum 3D7. Format: functional, organism-based.
Assay [6] has as its system Mycobacterium tuberculosis. Put plainly: Antimycobacterial activity against Mycobacterium tuberculosis. Format: functional.
Assay [7] can be described thus: Inhibition of CDK5/p25 (unknown origin). Also noted: species or system Homo sapiens.
The target of a further assay is Maltase-glucoamylase (Homo sapiens, UniProt O43451). Briefly: Inhibition of alpha-glucosidase (unknown origin).
Chain of Maltase-glucoamylase (O43451 whole entry): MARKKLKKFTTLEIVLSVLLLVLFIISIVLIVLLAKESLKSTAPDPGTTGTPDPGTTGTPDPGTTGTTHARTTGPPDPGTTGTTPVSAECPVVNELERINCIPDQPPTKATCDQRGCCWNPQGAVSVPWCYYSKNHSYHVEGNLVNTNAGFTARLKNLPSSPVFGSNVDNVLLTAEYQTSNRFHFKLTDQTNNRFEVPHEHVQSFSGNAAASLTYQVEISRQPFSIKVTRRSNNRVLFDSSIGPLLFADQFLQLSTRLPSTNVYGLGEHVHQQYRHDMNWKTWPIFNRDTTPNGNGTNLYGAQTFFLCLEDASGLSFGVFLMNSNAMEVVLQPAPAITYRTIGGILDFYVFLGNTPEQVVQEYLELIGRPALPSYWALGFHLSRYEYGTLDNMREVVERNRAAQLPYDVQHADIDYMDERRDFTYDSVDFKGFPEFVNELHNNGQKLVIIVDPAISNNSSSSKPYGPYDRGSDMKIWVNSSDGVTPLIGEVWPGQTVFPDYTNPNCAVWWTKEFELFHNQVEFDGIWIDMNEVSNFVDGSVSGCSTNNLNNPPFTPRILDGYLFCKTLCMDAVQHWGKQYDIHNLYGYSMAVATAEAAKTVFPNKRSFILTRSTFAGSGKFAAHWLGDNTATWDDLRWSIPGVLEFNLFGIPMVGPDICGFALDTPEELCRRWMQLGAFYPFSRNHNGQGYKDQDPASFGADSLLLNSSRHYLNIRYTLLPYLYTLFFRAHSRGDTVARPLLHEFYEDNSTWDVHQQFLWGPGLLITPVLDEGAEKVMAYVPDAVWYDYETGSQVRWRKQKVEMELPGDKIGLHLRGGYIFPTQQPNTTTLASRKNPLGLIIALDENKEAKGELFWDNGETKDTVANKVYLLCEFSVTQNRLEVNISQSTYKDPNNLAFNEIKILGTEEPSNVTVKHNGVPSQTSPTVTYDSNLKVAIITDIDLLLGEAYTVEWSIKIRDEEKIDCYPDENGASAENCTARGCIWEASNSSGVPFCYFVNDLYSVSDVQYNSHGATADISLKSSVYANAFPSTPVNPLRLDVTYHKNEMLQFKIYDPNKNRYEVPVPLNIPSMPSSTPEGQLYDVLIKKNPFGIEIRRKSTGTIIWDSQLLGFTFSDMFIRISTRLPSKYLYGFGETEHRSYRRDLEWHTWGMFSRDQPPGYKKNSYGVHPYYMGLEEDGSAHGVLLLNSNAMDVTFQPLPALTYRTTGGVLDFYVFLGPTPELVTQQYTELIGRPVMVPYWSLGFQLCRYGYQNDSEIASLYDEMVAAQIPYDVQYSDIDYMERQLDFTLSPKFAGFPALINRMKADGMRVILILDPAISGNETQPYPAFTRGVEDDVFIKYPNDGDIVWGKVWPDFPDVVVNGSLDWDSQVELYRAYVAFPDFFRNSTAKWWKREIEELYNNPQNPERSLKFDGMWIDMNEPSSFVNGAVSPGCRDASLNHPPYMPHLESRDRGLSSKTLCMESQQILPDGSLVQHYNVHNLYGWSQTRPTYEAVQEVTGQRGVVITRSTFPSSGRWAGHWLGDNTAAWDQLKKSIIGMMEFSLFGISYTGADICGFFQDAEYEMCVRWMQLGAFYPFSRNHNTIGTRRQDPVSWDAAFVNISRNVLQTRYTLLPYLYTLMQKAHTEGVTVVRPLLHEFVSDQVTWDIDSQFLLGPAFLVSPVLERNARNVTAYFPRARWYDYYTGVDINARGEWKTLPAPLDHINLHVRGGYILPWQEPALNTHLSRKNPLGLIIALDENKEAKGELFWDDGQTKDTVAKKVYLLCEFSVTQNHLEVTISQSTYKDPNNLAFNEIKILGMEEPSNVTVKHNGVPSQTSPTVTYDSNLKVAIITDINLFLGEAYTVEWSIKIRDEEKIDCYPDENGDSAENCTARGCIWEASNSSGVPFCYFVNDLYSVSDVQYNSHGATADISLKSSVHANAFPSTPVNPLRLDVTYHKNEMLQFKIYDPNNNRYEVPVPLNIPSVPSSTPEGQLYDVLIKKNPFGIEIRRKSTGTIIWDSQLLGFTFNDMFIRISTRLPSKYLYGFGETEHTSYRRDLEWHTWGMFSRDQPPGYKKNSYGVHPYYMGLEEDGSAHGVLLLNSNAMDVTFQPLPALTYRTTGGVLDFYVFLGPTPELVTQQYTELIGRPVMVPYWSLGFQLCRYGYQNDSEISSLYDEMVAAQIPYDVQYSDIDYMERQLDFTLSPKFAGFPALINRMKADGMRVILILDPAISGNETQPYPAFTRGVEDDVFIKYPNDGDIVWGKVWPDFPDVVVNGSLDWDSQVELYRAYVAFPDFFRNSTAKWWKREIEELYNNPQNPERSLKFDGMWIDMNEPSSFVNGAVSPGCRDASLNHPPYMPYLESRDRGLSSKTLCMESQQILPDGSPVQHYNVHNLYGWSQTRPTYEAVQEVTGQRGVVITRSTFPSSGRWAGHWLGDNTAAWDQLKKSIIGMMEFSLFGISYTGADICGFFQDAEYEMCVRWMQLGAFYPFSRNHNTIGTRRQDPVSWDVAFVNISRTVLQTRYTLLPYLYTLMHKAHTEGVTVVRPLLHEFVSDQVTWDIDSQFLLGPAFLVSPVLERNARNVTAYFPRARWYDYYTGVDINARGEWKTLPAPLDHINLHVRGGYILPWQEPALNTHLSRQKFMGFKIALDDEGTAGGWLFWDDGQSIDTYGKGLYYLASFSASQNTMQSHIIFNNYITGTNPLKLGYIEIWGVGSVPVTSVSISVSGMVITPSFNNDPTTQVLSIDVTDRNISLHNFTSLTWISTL
The nature of assay [8]: Antioxidant activity assessed as DPPH radical scavenging activity. Format: functional.
In assay [9] the test system is Plasmodium falciparum. Put plainly: Antiplasmodial activity against Plasmodium falciparum D6. Format: functional, organism-based.
Assay [10] relates to Plasmodium falciparum. Briefly: Antiplasmodial activity against Plasmodium falciparum W2. Format: functional, organism-based.

In the case of `COc1ccc2c(c1OC)O/C(=C\c1ccc(O)c(O)c1)C2=O`, in assay [1], the Activity is 85.8%.
As usually defined, the IC50 is the concentration at which inhibition is half-maximal. Take `COc1cc(/C=C2\Oc3cc4occc4c(OC)c3C2=O)ccc1OCC(=O)Nc1ccccc1`: the inhibition of growth at 10 µM with K562 (dose 10 µM, read-out: GI) came out at 70.3%; in the assay with MDA-MB-435 (dose 10 µM, read-out: GI), 79.6%. Moreover, in the assay with MDA-MB-435, the IC50 turned out to be 7.05 µM.
Consider `COc1cc(/C=C2\Oc3c(ccc4c3CCC(C)(C)O4)C2=O)ccc1O`, for which half-maximal inhibition in [2] (IC50) was put at 5.22 µM.
For `O=C1/C(=C/c2ccc(C(F)(F)F)cc2)Oc2cc(O)ccc21`, the values for the IC50 with HT-29 and with HL-60 were 8.9 µM and 1.54 µM, respectively.
`C=CCOc1ccc2c(c1)O/C(=C\c1ccc(C(F)(F)F)cc1)C2=O`: the IC50 in the assay on HT-29 amounted to 4.12 µM; in the assay on HL-60, 3.53 µM.
The molecule `O=C1/C(=C/c2ccncc2)Oc2cc(OCc3c(Cl)cccc3Cl)ccc21` came in with an IC50 against Tubulin of 66 µM.
Regarding `COc1cc2c(c(OC)c1)C(=O)/C(=C/c1ccc(C(C)(C)C)cc1)N2`, the IC50 in the assay with MES-SA amounted to 11.9 µM; with MES-SA/Dx5, 3.4 µM.
`CC1(C)CCc2c(ccc3c2O/C(=C\c2cccc(O)c2)C3=O)O1` returned an IC50 in [2] of 10.8 µM.
For the molecule `O=C1/C(=C/c2ccc(C(F)(F)F)cc2)Oc2cc(OCc3ccccc3)ccc21`, the results for the IC50 with HT-29 and in the assay on HL-60 were 4.12 µM and 3.46 µM, respectively.
For `COc1c(O)ccc2c1O/C(=C\c1ccc(O)c(O)c1)C2=O`, the Activity in assay [1] was found to be 84.2%.
What is called MIC is the least concentration at which growth counts as inhibited. Consider `Cc1cc(C)c2cc(/C=C3\Oc4cc(O)cc(O)c4C3=O)c(Cl)nc2c1`, for which the MIC in the assay with Bacillus subtilis turned out to be 156 µg/mL (≈ 424 µM); in the assay with Fusarium oxysporum it was 313 µg/mL (≈ 851 µM); in the assay with Staphylococcus aureus, 2500 µg/mL (≈ 6800 µM); in assay [3], 78 µg/mL (≈ 212 µM); in the assay with Candida albicans, 156 µg/mL (≈ 424 µM).
Turning to `COc1ccc2c(c1)O/C(=C\c1ccc(C(F)(F)F)cc1)C2=O`, the IC50 amounted to 5.9 µM in the assay on HT-29 and 2.59 µM with HL-60.
`COc1cc(OC)c(C2=CCN(Cc3ccccc3)CC2)c2c1C(=O)/C(=C/c1ccc(F)cc1)O2`: the IC50 in assay [4] was 71.7 µM.
In the assay with Plasmodium falciparum [5], `CCOc1c(Br)cc(/C=C2\Oc3cc(OC)cc(OC)c3C2=O)cc1OC` yielded an IC50 of 7.27 µM.
In the case of `Cc1ccc2cc(/C=C3\Oc4cc(O)cc(O)c4C3=O)c(Cl)nc2c1C`, the MIC came to 625 µg/mL (≈ 1700 µM) in the assay with Bacillus subtilis and 1250 µg/mL (≈ 3400 µM) in the assay on Staphylococcus aureus.
As a reminder, the MIC99 is the lowest concentration that inhibits either 99% of growth or 99% of the strains tested, depending on the study. Consider `CC(=O)N1/C(=C\c2ccc(-c3ccsc3)cc2)C(=O)c2ccccc21`, for which, in assay [6], the MIC99 is 0.6 µM (≈ 0.207 µg/mL).
On to `COc1cc2c(c(OC)c1)C(=O)/C(=C/c1ccc(C(C)C)cc1)N2`, for which the half-maximal inhibitory concentration (IC50) with MES-SA turned out to be 17.1 µM; in the assay with MES-SA/Dx5, 5.8 µM.
`O=C1/C(=C/c2ccc(O)c(O)c2)Oc2cc(O)cc(O)c21` [AUREUSIDIN]: in assay [7], the IC50 was determined as 4.81 µM.
With `COc1cc2c(c(OC)c1)C(=O)/C(=C/c1c(C)c(C)cc(C)c1C)N2`, the 50% inhibitory concentration (IC50) in the assay with MES-SA came out at 9.2 µM; in the assay with MES-SA/Dx5, 19.5 µM.
In turn, `CC(C)=CCc1c(O)ccc2c1O/C(=C\c1ccc(O)cc1)C2=O` had an IC50 at Maltase-glucoamylase of 73.8 µM.
With `O=C1/C(=C/c2cc3cc(Br)ccc3nc2Cl)Oc2cc(O)cc(O)c21`, the MIC with Bacillus subtilis turned out to be 313 µg/mL (≈ 748 µM); in the assay with Staphylococcus aureus, 1250 µg/mL (≈ 2990 µM); in the assay with Candida albicans it was 78 µg/mL (≈ 186 µM).
For the molecule `O=C1/C(=C/c2ccc(Cl)cc2)Oc2ccccc21`, the IC50 in assay [8] was found to be 92 µM.
Take `CCCOc1c(Br)cc(/C=C2\Oc3cc(OC)cc(OC)c3C2=O)cc1OC`: the IC50 in the assay on Plasmodium falciparum [5] is 2.3 µM.
Consider `CC1(C)CCc2c(ccc3c2O/C(=C\c2ccccc2)C3=O)O1`, for which the IC50 in assay [2] was determined as 12.2 µM.
For `COc1cc(OC)c2c(c1)O/C(=C\c1ccccc1)C2=O`, the IC50 with Plasmodium falciparum [9] and with Plasmodium falciparum [10] was 16.9 µM each time.
`CCOc1ccc2c(c1)O/C(=C\c1ccc(C(F)(F)F)cc1)C2=O`: the IC50 turned out to be 9.12 µM in the assay on HT-29 and 1.65 µM with HL-60.
Regarding `CCCCc1ccc(/C=C2\Nc3cc(OC)cc(OC)c3C2=O)cc1`, the IC50 came to 17.8 µM in the assay with MES-SA and 3.7 µM in the assay with MES-SA/Dx5.
With `COc1cc(/C=C2\Oc3c(ccc(OC)c3OC)C2=O)ccc1O`, in [1], the Activity was determined as 32.8%.
As for `CCCCCCCOc1ccc2c(c1)O/C(=C\c1ccc(C(F)(F)F)cc1)C2=O`, the values for the IC50 in the assay on HT-29 and in the assay on HL-60 were 4.32 µM and 2.67 µM, respectively.
As for `COc1ccc(/C=C2\Oc3c(ccc(OC)c3OC)C2=O)cc1O`, in assay [1], the Activity was 8.9%.
With `C#Cc1cccc(Nc2ncnc3cc(OCCOC)c(OCCOC)cc23)c1` [ERLOTINIB], the figures for the IC50 with K562 and in the assay on MDA-MB-435 were 3.29 µM and 7.05 µM, respectively.
As for `O=C1/C(=C/c2cc3ccccc3nc2Cl)Oc2cc(O)cc(O)c21`, the MIC came to 20 µg/mL (≈ 58.9 µM) with Bacillus subtilis, 625 µg/mL (≈ 1840 µM) in the assay with Fusarium oxysporum, 1250 µg/mL (≈ 3680 µM) in the assay on Staphylococcus aureus and 625 µg/mL (≈ 1840 µM) in [3].
`CC(=O)N1/C(=C\c2ccc(Br)cc2)C(=O)c2ccccc21` gave an MIC99 in [6] of 0.37 µM (≈ 0.127 µg/mL).
`COc1cc(OC)c2c(c1)O/C(=C\c1ccc(OC)c(OC)c1)C2=O` [4,6,3',4'-TETRAMETHOXYAURONE]: the IC50 is 13.9 µM in the assay on Plasmodium falciparum [9], 7.82 µM with Plasmodium falciparum [5] and 13.9 µM in the assay with Plasmodium falciparum [10].
`Cc1ccc(/C=C2\Oc3c(ccc4c3CCC(C)(C)O4)C2=O)o1` had an IC50 in [2] of 11.9 µM.
`CCn1cc(/C=C2\Oc3cc(OCC#N)cc(O)c3C2=O)c2cc(OC)ccc21` displayed an IC50 against Tubulin of 58.6 µM.
Regarding `COc1cc(/C=C2\Oc3c(ccc(O)c3OC)C2=O)ccc1O`, the Activity in assay [1] stood at 47.4%.
In assay [2], `CC1(C)CCc2c(ccc3c2O/C(=C\c2ccc(O)c(O)c2)C3=O)O1` came in with an IC50 of 8.09 µM.
In the case of `O=C1c2ccccc2OC1(O)Cc1ccc(Cl)cc1` (centres undefined), in assay [8], the IC50 was found to be 54 µM.
With `CC(=O)N1/C(=C\c2ccc(-c3cncc4ccccc34)cc2)C(=O)c2ccccc21`, the MIC99 in assay [6] was determined as 0.74 µM (≈ 0.289 µg/mL).
`CC1(C)CCc2c(ccc3c2O/C(=C\c2ccccn2)C3=O)O1` came in with an IC50 in assay [2] of 8.41 µM.
Regarding `COc1cc(OC)c(C2=CCN(Cc3ccccc3)CC2)c2c1C(=O)/C(=C/c1ccc(Br)cc1)O2`, the IC50 in assay [4] is 87 µM.
For `COc1ccc2c(c1)O/C(=C\c1cc(O)ccc1O)C2=O`, in assay [8], the IC50 was 35.9 µM.
